Experimental data as given in ChEMBL document CHEMBL4706634, “PEGylated and Acylated Elabela Analogues Show Enhanced Receptor Binding, Prolonged Stability, and Remedy of Acute Kidney Injury” (J Med Chem, 2020).
Activity calls are given as the source filed them. The rule behind the calls is not given here.

Legend:
[1] = Stability in human plasma assessed as half life at 1.56 mM by RP-HPLC analysis; type: ADME, cell-free
[2] = tested on: Mus musculus; assay: Reno-protective activity in C57BL/6 mouse model of renal I/R injury assessed as reduction in apoptosis by measuring increase in number of TUNEL+ cells dosed intraperitoneally twice per day for 3 days from day of I/R injury to end of experiment by TUNEL assay; type: functional, organism-based; conditions: time 3.0 day
[3] = tested on: Mus musculus; assay: Reno-protective activity in C57BL/6 mouse model of renal I/R injury assessed as reduction in fibrosis by measuring collagen deposition dosed intraperitoneally twice per day for 3 days from day of I/R injury to end of experiment by Masson staining based assay; type: functional, organism-based; conditions: time 3.0 day
[4] = tested on: Mus musculus; assay: Reno-protective activity in C57BL/6 mouse model of renal I/R injury assessed as reduction N-gal mRNA levels dosed intraperitoneally twice per day for 3 days from day of I/R injury to end of experiment by qPCR analysis; type: functional, organism-based; conditions: time 3.0 day
[5] = Stability in mouse plasma assessed as intact peptide level at 1.56 mM incubated for 1 hr by RP-HPLC analysis; type: ADME, cell-free; conditions: read-out: Stabilty
[6] = tested on: Mus musculus; assay: Reno-protective activity in C57BL/6 mouse model of renal I/R injury assessed as reduction in cleaved-caspase-3 levels dosed intraperitoneally twice per day for 3 days from day of I/R injury to end of experiment by Western blot analysis; type: functional, organism-based; conditions: time 3.0 day
[7] = tested on: Mus musculus; assay: Reno-protective activity in C57BL/6 mouse model of renal I/R injury assessed as improvement in pathologies in injured kidneys dosed intraperitoneally twice per day for 3 days from day of I/R injury to end of experiment by hematoxylin and eosin staining based assay; type: functional, organism-based; conditions: time 3.0 day
[8] = tested on: Mus musculus; assay: Reno-protective activity in C57BL/6 mouse model of renal I/R injury assessed as suppression of reduction in cleaved-caspase-8 levels dosed intraperitoneally twice per day for 3 days from day of I/R injury to end of experiment by Western blot analysis; type: functional, organism-based; conditions: time 3.0 day
[9] = tested on: Mus musculus; assay: Reno-protective activity in C57BL/6 mouse model of renal I/R injury assessed as reduction in p-MLK levels dosed intraperitoneally twice per day for 3 days from day of I/R injury to end of experiment by Western blot analysis; type: functional, organism-based; conditions: time 3.0 day
[10] = Stability in mouse plasma assessed as half life at 1.56 mM by RP-HPLC analysis; type: ADME, cell-free
[11] = tested on: NRK-52E; assay: Cytoprotective activity in rat NRK-52E cells assessed as reduction in cisplatin-induced cell death at 300 pM incubated for 24 hrs; type: functional, cell-based
[12] = tested on: Mus musculus; assay: Reno-protective activity in C57BL/6 mouse model of renal I/R injury assessed as reduction in serum BUN level dosed intraperitoneally twice per day for 3 days from day of I/R injury to end of experiment; type: functional, organism-based; conditions: time 3.0 day
[13] = tested on: Mus musculus; assay: Reno-protective activity in C57BL/6 mouse model of renal I/R injury assessed as reduction lymphocyte infiltration dosed intraperitoneally twice per day for 3 days from day of I/R injury to end of experiment; type: functional, organism-based; conditions: time 3.0 day
[14] = molecular target: T1, Apelin receptor (Rattus norvegicus, UniProt Q9JHG3); assay: Agonist activity at APJ receptor in rat NRK-52E cells assessed as effect on cAMP accumulation incubated for 1 hr by cAMP-Glo assay; type: functional, cell-based
T1 sequence (Q9JHG3 whole entry): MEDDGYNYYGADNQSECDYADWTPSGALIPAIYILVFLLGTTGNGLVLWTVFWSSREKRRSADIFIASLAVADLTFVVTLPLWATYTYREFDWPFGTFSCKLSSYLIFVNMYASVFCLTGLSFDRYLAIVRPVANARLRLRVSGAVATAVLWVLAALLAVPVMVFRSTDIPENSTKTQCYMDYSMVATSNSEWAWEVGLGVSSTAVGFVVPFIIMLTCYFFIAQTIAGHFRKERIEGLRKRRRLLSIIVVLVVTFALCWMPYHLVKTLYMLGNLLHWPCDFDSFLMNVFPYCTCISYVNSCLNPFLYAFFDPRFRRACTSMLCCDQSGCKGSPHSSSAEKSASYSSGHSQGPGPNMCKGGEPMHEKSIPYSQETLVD

[15] = tested on: Mus musculus; assay: Reno-protective activity in C57BL/6 mouse model of renal I/R injury assessed as reduction neutrophil infiltration dosed intraperitoneally twice per day for 3 days from day of I/R injury to end of experiment; type: functional, organism-based; conditions: time 3.0 day
[16] = tested on: NRK-52E; assay: Cytoprotective activity in rat NRK-52E cells assessed as reduction in H/R-injury induced cell death at 300 pM incubated for 24 hrs; type: functional, cell-based

Row | SMILES | half-life at 1560 µM [1] | Activity [2] | Activity [3] | Activity [4] | remaining at 1 h, 1560 µM [5] | Activity [6] | Activity [7] | Activity [8] | Activity [9] | half-life at 1560 µM [10] | Activity [11] | Activity [12] | Activity [13] | EC50 [14] | Activity [15] | Activity [16]
1 | CSCC[C@H](NC(=O)[C@H](CS)NC(=O)CC[C@H](NC(=O)CCOCCOCCOCCOCCOCCOCCN)C(=O)O)C(=O)N1CCC[C@H]1C(=O)N[C@@H](CC(C)C)C(=O)N[C@@H](Cc1c[nH]cn1)C(=O)N[C@@H](CO)C(=O)N[C@@H](CCCNC(=N)N)C(=O)N[C@H](C(=O)N1CCC[C@H]1C(=O)N[C@@H](Cc1ccccc1)C(=O)N1CCC[C@H]1C(N)=O)C(C)C | 106 min | Active | Active | Active | 38.7% | Active | Active | Active | Active | 47.4 min | Active | Active | Active | 7.84 nM | Active | Active
2 | CCCCCCCCCCCCCCCC(=O)N[C@@H](CCC(=O)NCCCC[C@H](NC(=O)CCC(=O)N[C@@H](CS)C(=O)N[C@@H](CCSC)C(=O)N1CCC[C@H]1C(=O)N[C@@H](CC(C)C)C(=O)N[C@@H](Cc1c[nH]cn1)C(=O)N[C@@H](CO)C(=O)N[C@@H](CCCNC(=N)N)C(=O)N[C@H](C(=O)N1CCC[C@H]1C(=O)N[C@@H](Cc1ccccc1)C(=O)N1CCC[C@H]1C(N)=O)C(C)C)C(=O)N[C@@H](CS)C(=O)N[C@@H](CCSC)C(=O)N1CCC[C@H]1C(=O)N[C@@H](CC(C)C)C(=O)N[C@@H](Cc1c[nH]cn1)C(=O)N[C@@H](CO)C(=O)N[C@@H](CCCNC(=N)N)C(=O)N[C@H](C(=O)N1CCC[C@H]1C(=O)N[C@@H](Cc1ccccc1)C(=O)N1CCC[C@H]1C(N)=O)C(C)C)C(=O)O | > 1440 min | – | inactive | – | 75.9% | – | inactive | – | – | 305 min | – | – | inactive | 9.48 nM | inactive | –
3 | CSCC[C@H](NC(=O)[C@H](CS)NC(=O)[C@H](CCCNC(=N)N)NC(=O)[C@H](CCCNC(=N)N)NC(=O)[C@@H]1CCC(=O)N1)C(=O)N1CCC[C@H]1C(=O)N[C@@H](CC(C)C)C(=O)N[C@@H](Cc1c[nH]cn1)C(=O)N[C@@H](CO)C(=O)N[C@@H](CCCNC(=N)N)C(=O)N[C@H](C(=O)N1CCC[C@H]1C(=O)N[C@@H](Cc1ccccc1)C(=O)N1CCC[C@H]1C(N)=O)C(C)C | – | – | – | – | – | – | – | – | – | 17.4 min | – | – | – | – | – | –
